The experiment addresses T1, Doublecortin-like kinase 1 (DCLK1) (Homo sapiens, UniProt O15075).
T1 sequence (O15075 390-647 limits assumed): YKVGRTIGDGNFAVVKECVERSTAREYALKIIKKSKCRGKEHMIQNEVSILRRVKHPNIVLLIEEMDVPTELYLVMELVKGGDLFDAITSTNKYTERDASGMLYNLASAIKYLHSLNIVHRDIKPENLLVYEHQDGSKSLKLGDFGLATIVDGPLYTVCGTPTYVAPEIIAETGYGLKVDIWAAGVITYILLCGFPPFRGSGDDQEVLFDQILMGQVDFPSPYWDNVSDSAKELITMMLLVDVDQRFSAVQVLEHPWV
As to the kind of experiment: peptide substrate mobility shift kinase assay with purified DCLK1 WT. Type of experiment: biochemical.

`COc1cc(N2CCN(C)CC2)ccc1Nc1ncc2c(n1)N(C)c1ccccc1C(=O)N2CC(F)(F)F` [DCLK1-IN-1]: the concentration for half-maximal inhibition (IC50) turned out to be 55 nM.
